Consider 23 molecules from ChEMBL document CHEMBL1140492, “Synthesis and inhibitory activity of 4-alkynyl and 4-alkenylquinazolines: identification of new scaffolds for potent EGFR tyrosine kinase inhibitors” (Bioorg Med Chem Lett, 2007).

The assay deals with Epidermal growth factor receptor (Homo sapiens, UniProt P00533). Briefly: Inhibition of partially purified EGFR tyrosine kinase from human A431 cells.
Chain of Epidermal growth factor receptor (P00533 whole entry): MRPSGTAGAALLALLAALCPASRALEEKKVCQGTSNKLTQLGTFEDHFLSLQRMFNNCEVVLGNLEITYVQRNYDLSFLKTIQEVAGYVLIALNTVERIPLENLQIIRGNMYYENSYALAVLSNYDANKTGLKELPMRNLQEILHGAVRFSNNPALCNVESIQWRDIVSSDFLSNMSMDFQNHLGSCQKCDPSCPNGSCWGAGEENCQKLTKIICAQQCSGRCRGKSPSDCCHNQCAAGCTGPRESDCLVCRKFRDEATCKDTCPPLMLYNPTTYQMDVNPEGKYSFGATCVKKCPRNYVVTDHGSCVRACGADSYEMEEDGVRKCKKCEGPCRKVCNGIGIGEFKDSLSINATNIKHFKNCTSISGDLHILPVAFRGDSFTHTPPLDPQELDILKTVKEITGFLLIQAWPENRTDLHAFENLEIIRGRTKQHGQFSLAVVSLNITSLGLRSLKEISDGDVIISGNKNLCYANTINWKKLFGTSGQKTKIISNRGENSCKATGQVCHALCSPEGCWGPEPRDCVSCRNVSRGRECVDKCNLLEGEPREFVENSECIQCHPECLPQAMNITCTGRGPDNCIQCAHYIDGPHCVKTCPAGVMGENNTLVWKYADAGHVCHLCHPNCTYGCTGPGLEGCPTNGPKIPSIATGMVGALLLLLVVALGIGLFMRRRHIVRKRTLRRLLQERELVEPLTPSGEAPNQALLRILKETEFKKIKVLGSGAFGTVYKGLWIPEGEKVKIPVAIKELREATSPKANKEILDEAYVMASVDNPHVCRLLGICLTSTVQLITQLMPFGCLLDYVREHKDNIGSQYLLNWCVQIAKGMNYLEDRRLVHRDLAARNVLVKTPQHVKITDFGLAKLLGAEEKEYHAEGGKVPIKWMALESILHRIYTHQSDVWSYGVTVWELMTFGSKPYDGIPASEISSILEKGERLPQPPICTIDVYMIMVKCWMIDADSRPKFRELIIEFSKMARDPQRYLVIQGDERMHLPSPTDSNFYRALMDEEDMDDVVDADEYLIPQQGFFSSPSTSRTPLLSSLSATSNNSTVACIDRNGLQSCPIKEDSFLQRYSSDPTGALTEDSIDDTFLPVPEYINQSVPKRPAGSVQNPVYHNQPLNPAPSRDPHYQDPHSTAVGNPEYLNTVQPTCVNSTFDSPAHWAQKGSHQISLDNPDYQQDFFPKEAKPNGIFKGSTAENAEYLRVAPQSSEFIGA
The term IC50 denotes the concentration needed to halve the response being measured. Low values mean higher potency, high ones lower potency. Turning to `COc1cc2ncnc(C#Cc3ccccc3)c2cc1OC`, 5600 nM corresponded to half-maximal inhibition (IC50).

`COc1cc2ncnc(C#CCCc3ccccc3)c2cc1OC` gave an IC50 of 14 nM.

Molecule `COc1cc2ncnc(C#CCOc3ccccc3)c2cc1OC` gave an IC50 of 15 nM.

Molecule `COc1cc2ncnc(C#CC(C)(C)N(C)c3ccccc3)c2cc1OC` returned an IC50 of 80 nM.

As for `COc1cc2ncnc(/C=C/CCc3ccccc3)c2cc1OC`, the IC50 is 4 nM.

`COc1cc2ncnc(C#Cc3ccccc3-c3ccccc3)c2cc1OC` yielded an IC50 of 26 nM.

In turn, `CCOc1cc2ncnc(/C=C/c3ccccc3)c2cc1OCC` displayed an IC50 of 15 nM.

Molecule `CCOc1cc2ncnc(/C=C/CCCc3ccccc3)c2cc1OCC` registered an IC50 of 140 nM.

Take `CCOc1cc2ncnc(C#Cc3[nH]ccc3-c3ccccc3)c2cc1OCC`: the IC50 was 10 nM.

In turn, `CCOc1cc2ncnc(C#Cc3c[nH]nc3-c3ccc(F)cc3)c2cc1OCC` gave an IC50 of 1.8 nM.

Take `CCOc1cc2ncnc(C#C[C@](C)(Cc3ccccc3)N3CCC(C(=O)O)CC3)c2cc1OCC`: inhibition was half-maximal at 662 nM (IC50).

As for `COc1cc2ncnc(C#C[C@@](C)(Cc3ccccc3)N3CCC(C(=O)O)CC3)c2cc1OC`, the half-inhibitory concentration (IC50) worked out at 33 nM.

Molecule `CCN(CC)[C@@](C)(C#Cc1ncnc2cc(OC)c(OC)cc12)Cc1ccccc1` registered an IC50 of 3 nM.

Turning to `CCN(CC)[C@@](C)(C#Cc1ncnc2cc(OC)c(OC)cc12)c1ccccc1`, the half-inhibitory concentration (IC50) was 7300 nM.

For the molecule `CCN(CC)[C@@](C)(C#Cc1ncnc2cc(OC)c(OC)cc12)CCc1ccccc1`, inhibition was half-maximal at 1200 nM (IC50).

The molecule `CCN(CC)[C@@](C)(C#Cc1ncnc2cc(OC)c(OC)cc12)Cc1ccncc1` had an IC50 of 200 nM.

Regarding `CCN(CC)[C@@](C)(C#Cc1ncnc2cc(OC)c(OC)cc12)CC1CCCCC1`, the IC50 worked out at 1100 nM.

`CCN(CC)[C@@](C)(CCc1ncnc2cc(OC)c(OC)cc12)Cc1ccccc1` showed an IC50 of 130 nM.

The molecule `CCOc1cc2ncnc(/C=C/CCc3ccccc3)c2cc1OCC` registered an IC50 of 5 nM.

As to `CCOc1cc2ncnc(C#Cc3nccn3-c3ccccc3)c2cc1OCC`, the IC50 stood at 12 nM.

`CCOc1cc2ncnc(C#C[C@@](C)(Cc3ccccc3)N3CCC(C(=O)O)CC3)c2cc1OCC` came in with a half-maximal inhibitory concentration (IC50) of 4.2 nM.

`COc1cc2ncnc(C#CC(C)(C)Cc3ccccc3)c2cc1OC` came in with an IC50 of 13 nM.

Turning to `CCOc1cc2ncnc(C#CC(C)(Cc3ccccc3)N3CCC(C(=O)O)CC3)c2cc1OCC` (racemic), half-maximal inhibition (IC50) was put at 11.7 nM.
